# Legend:
# Test in all cases: biochemical
# Set-up in all cases: KINOMEscan competition binding panel, per cent of control
# Settings in all cases: read-out: %Ctrl @ 2800nM
# KIT(V559D,V654A) = KIT(V559D,V654A) (Homo sapiens, UniProt P10721, V559D/V654A)
# Method in brief: (§1)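 Values are expressed as percent of control, calculated as ((test − positive control)/(negative control − positive control)) × 100, so lower numbers mean stronger hits. Binding was measured by KINOMEscan competition assay in a 450-kinase human panel including disease mutants, using the contractor's validated protocol.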
# ALK = ALK (Homo sapiens, UniProt Q9UM73)
# Method in brief: as §1
# ABL2 = ABL2 (Homo sapiens, UniProt P42684)
# Method in brief: as §1
# MAP3K3 = MAP3K3 (Homo sapiens, UniProt Q99759)
# Method in brief: as §1
# EGFR(G719S) = EGFR(G719S) (Homo sapiens, UniProt P00533, G719S)
# Method in brief: as §1
# CDK4-cyclinD1 = target: T1, CDK4-cyclinD1 (Homo sapiens, UniProt P11802)
# T1 construct: cyclinD1
# Method in brief: as §1
# TIE2 = target: T2, TIE2 (Homo sapiens, UniProt Q02763)
# T2 construct: gene TEK
# Method in brief: as §1
# NIM1 = target: T3, NIM1 (Homo sapiens, UniProt Q8IY84)
# T3 construct: gene NIM1K
# Method in brief: as §1
# FLT3(ITD) = FLT3(ITD) (Homo sapiens, UniProt P36888, ITD)
# Method in brief: as §1
# CAMKK2 = CAMKK2 (Homo sapiens, UniProt Q96RR4)
# Method in brief: as §1
# [1] = target: T4, ABL1(H396P)-nonphosphorylated (Homo sapiens, UniProt P00519, H396P)
# T4 construct: nonphosphorylated
# Method in brief: as §1
# MAST1 = MAST1 (Homo sapiens, UniProt Q9Y2H9)
# Method in brief: as §1
# EGFR(L858R,T790M) = EGFR(L858R,T790M) (Homo sapiens, UniProt P00533, L858R/T790M)
# Method in brief: as §1
# CDC2L1 = target: T5, CDC2L1 (Homo sapiens, UniProt P21127)
# T5 construct: gene CDK11B
# Method in brief: as §1
# ANKK1 = ANKK1 (Homo sapiens, UniProt Q8NFD2)
# Method in brief: as §1
# [2] = target: T6, RSK1(Kin.Dom.1-N-terminal) (Homo sapiens, UniProt Q15418)
# T6 construct: gene RPS6KA1; Kin.Dom.1-N-terminal
# Method in brief: as §1
# KIT(D816H) = KIT(D816H) (Homo sapiens, UniProt P10721, D816H)
# Method in brief: as §1
# CLK2 = CLK2 (Homo sapiens, UniProt P49760)
# Method in brief: as §1
# AURKB = AURKB (Homo sapiens, UniProt Q96GD4)
# Method in brief: as §1
# CDKL1 = CDKL1 (Homo sapiens, UniProt Q00532)
# Method in brief: as §1
# NDR2 = target: T7, NDR2 (Homo sapiens, UniProt Q9Y2H1)
# T7 construct: gene STK38L
# Method in brief: as §1
# DAPK3 = DAPK3 (Homo sapiens, UniProt O43293)
# Method in brief: as §1
# FGFR3(G697C) = FGFR3(G697C) (Homo sapiens, UniProt P22607, G697C)
# Method in brief: as §1
# ACVR1 = ACVR1 (Homo sapiens, UniProt Q04771)
# Method in brief: as §1
# IRAK1 = IRAK1 (Homo sapiens, UniProt P51617)
# Method in brief: as §1
# Chain of ANKK1 (Q8NFD2 whole entry): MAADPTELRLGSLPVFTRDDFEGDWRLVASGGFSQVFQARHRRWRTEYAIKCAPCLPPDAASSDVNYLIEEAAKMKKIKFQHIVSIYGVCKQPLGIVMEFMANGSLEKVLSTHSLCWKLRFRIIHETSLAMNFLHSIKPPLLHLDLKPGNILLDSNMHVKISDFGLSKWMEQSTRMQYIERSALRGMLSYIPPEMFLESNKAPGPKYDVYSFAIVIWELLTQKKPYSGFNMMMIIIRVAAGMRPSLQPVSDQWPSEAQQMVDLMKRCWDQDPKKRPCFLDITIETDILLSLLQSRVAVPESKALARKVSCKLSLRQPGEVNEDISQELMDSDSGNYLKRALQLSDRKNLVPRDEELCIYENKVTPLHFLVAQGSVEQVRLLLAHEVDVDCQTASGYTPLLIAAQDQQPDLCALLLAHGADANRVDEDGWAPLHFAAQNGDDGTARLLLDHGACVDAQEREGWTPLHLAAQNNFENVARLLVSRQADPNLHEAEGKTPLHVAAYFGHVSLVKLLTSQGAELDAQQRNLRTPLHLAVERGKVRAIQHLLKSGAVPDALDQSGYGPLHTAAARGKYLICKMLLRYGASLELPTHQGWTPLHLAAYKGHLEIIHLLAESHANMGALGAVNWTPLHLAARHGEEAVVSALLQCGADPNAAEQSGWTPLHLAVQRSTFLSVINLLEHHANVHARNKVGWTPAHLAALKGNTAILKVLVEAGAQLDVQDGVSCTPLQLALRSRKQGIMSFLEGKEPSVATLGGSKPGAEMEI
# Chain of FLT3(ITD) (P36888 564-993, change not shown): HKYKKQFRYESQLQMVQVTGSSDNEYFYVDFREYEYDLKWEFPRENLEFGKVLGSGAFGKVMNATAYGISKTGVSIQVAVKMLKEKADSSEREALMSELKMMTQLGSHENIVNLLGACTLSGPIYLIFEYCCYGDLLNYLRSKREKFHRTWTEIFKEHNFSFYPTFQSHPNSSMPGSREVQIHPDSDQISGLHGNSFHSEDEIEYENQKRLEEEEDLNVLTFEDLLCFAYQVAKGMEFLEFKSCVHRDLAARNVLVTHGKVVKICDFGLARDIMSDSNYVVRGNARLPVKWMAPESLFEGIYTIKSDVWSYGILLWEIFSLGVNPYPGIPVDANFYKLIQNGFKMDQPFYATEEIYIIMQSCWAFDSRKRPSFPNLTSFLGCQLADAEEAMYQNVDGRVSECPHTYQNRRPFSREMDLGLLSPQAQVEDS
# Chain of ACVR1 (Q04771 whole entry): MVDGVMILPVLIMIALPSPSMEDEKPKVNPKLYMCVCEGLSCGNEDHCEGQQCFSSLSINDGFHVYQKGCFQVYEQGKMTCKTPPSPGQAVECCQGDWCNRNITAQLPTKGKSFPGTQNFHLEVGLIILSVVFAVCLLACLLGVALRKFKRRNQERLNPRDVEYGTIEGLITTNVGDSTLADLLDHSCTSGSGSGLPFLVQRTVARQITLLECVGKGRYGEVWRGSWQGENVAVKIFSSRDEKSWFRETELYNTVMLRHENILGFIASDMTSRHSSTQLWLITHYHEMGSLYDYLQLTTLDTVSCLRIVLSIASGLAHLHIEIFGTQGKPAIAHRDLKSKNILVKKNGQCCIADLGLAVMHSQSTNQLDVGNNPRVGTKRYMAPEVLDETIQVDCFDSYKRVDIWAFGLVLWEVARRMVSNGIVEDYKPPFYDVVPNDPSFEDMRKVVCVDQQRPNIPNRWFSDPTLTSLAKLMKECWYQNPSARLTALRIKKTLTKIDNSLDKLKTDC
# T1 sequence (P11802 whole entry): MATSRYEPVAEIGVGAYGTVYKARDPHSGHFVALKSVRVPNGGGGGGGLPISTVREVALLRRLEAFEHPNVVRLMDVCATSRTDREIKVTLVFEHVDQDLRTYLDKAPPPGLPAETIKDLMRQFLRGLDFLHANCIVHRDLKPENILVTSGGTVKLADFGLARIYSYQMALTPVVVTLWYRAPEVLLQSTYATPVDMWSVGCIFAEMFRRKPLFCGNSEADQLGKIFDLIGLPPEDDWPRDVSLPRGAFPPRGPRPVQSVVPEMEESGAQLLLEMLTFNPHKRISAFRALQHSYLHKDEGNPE
# T1 sequence (P24385 whole entry partner): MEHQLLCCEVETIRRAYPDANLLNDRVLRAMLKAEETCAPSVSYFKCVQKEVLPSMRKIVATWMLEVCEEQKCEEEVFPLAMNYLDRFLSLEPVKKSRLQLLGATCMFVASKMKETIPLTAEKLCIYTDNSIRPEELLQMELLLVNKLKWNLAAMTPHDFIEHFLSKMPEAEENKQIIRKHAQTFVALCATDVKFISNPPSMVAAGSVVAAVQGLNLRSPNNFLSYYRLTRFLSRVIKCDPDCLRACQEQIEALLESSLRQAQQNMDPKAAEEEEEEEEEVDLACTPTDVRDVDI
# T7 sequence (Q9Y2H1 whole entry): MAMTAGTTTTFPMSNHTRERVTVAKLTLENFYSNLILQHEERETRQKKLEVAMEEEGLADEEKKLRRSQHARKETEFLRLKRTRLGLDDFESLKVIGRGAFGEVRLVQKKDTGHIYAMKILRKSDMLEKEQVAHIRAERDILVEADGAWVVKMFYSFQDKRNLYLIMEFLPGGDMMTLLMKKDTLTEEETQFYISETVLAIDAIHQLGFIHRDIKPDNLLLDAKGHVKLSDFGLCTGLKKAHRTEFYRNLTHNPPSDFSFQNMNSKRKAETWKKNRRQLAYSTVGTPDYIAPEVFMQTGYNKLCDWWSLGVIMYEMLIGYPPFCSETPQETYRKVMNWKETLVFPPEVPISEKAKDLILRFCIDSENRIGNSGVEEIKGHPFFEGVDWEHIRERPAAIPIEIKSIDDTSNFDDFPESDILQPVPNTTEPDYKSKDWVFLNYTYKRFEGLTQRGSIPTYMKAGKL
# Chain of FGFR3(G697C) (P22607 whole entry G697C): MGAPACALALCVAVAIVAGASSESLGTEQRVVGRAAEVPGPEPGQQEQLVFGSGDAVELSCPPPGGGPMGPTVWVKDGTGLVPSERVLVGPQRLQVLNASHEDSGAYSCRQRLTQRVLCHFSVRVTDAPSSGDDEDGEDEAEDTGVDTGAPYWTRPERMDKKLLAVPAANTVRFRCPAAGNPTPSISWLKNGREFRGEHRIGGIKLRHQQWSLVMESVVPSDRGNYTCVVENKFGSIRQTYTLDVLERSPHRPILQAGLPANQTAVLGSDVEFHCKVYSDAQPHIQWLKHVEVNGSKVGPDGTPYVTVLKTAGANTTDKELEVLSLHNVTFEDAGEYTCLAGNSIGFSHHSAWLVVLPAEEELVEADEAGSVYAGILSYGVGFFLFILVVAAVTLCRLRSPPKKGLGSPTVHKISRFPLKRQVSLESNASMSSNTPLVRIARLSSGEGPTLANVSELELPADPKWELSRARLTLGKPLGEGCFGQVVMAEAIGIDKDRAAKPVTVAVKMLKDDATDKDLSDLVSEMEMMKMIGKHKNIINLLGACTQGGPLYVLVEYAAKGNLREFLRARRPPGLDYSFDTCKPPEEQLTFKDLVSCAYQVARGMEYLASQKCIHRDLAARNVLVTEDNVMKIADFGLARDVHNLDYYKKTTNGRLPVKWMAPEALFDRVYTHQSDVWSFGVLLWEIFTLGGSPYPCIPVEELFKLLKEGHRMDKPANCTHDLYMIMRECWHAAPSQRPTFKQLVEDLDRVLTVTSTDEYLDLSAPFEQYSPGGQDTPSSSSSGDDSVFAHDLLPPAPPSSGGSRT
# T5 sequence (P21127 whole entry): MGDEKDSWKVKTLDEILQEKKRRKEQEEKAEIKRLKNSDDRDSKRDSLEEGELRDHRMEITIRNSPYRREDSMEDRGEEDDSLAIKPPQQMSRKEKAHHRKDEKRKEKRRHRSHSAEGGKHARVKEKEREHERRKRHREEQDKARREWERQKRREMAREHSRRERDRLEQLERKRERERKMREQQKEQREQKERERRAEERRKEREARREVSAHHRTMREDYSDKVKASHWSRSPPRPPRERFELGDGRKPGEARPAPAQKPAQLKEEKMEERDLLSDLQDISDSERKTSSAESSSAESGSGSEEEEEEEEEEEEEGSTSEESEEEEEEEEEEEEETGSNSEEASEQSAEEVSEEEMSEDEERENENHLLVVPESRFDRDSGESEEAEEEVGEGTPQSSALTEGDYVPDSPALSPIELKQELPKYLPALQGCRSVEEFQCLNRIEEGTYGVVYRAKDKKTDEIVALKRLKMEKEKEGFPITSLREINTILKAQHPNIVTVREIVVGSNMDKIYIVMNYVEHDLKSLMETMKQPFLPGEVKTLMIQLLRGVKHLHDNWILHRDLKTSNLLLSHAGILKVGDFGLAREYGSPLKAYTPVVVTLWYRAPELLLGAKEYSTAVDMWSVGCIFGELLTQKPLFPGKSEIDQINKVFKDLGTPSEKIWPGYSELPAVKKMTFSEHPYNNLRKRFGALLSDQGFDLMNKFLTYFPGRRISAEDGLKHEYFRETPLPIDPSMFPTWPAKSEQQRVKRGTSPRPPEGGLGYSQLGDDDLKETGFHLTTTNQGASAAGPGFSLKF
# Chain of CAMKK2 (Q96RR4 whole entry): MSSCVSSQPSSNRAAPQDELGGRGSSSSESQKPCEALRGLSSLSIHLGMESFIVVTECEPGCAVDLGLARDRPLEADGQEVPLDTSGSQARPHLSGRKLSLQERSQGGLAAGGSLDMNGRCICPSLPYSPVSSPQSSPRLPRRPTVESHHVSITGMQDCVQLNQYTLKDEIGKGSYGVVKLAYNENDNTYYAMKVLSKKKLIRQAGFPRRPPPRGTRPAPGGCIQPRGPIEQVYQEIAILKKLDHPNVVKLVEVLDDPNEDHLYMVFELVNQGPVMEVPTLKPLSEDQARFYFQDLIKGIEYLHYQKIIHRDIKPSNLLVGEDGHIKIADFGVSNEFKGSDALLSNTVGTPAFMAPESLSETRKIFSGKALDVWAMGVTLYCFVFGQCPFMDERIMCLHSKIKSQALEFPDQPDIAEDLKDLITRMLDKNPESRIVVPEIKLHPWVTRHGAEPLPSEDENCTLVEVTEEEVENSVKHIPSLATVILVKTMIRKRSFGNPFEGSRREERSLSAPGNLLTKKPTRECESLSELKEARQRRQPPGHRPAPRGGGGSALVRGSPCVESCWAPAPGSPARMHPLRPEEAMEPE
compound,measurement,setting,value
"[O-][S@@+](Cc1cncs1)C(c1ccccc1)c1ccccc1 [S-CE-123, (S)-5-((Benzhydrylsulfinyl)Methyl)Thiazole]",remaining binding at 2.8 µM,"KIT(V559D,V654A)",100%
same,remaining binding at 2.8 µM,ALK,100%
same,remaining binding at 2.8 µM,ABL2,99%
same,remaining binding at 2.8 µM,MAP3K3,86%
same,remaining binding at 2.8 µM,EGFR(G719S),77%
same,remaining binding at 2.8 µM,CDK4-cyclinD1,100%
same,remaining binding at 2.8 µM,TIE2,100%
same,remaining binding at 2.8 µM,NIM1,97%
same,remaining binding at 2.8 µM,FLT3(ITD),100%
same,remaining binding at 2.8 µM,CAMKK2,94%
same,remaining binding at 2.8 µM,[1],86%
same,remaining binding at 2.8 µM,MAST1,94%
same,remaining binding at 2.8 µM,"EGFR(L858R,T790M)",99%
same,remaining binding at 2.8 µM,CDC2L1,95%
same,remaining binding at 2.8 µM,ANKK1,100%
same,remaining binding at 2.8 µM,[2],80%
same,remaining binding at 2.8 µM,KIT(D816H),100%
same,remaining binding at 2.8 µM,CLK2,93%
same,remaining binding at 2.8 µM,AURKB,78%
same,remaining binding at 2.8 µM,CDKL1,100%
same,remaining binding at 2.8 µM,NDR2,82%
same,remaining binding at 2.8 µM,DAPK3,96%
same,remaining binding at 2.8 µM,FGFR3(G697C),96%
same,remaining binding at 2.8 µM,ACVR1,99%
same,remaining binding at 2.8 µM,IRAK1,91%

# Source: PMC10046369, “Low-Affinity/High-Selectivity Dopamine Transport Inhibition Sufficient to Rescue Cognitive Functions in the Aging Rat” (Biomolecules, 2023)
